Test results reported in ChEMBL document CHEMBL1132239, “Tricyclic farnesyl protein transferase inhibitors: crystallographic and calorimetric studies of structure-activity relationships” (J Med Chem, 1999).

Columns and labels:
[1] = Dissociation constant of the Compound; type: physicochemical
[2] = biological target: Protein farnesyltransferase (Homo sapiens, UniProt P49354+P49356); assay: Inhibition of Farnesyl protein transferase; type: protein-complex assay

Structure (SMILES) | Kd [1] | IC50 [2]
O=C(Cc1cc[n+]([O-])cc1)N1CCC(=C2c3ccc(Cl)cc3CCc3cccnc32)CC1 | 240 nM | –
O=C(Cc1cc[n+]([O-])cc1)N1CCC(=C2c3ccc(Cl)cc3CCc3cc(Br)cnc32)CC1 | 17.5 nM | 52 nM
O=C(Cc1cc[n+]([O-])cc1)N1CCN([C@@H]2c3ccc(Cl)cc3CCc3cc(Br)cnc32)CC1 | 32 nM | –
O=C(Cc1cc[n+]([O-])cc1)N1CCN([C@H]2c3ccc(Cl)cc3CCc3cc(Br)cnc32)CC1 | 21 nM | –
O=C(Cc1cc[n+]([O-])cc1)N1CCC(=C2c3ncc(Br)cc3CCc3cc(Cl)cc(Br)c32)CC1 | 5.1 nM | 3.9 nM
